Results taken from patent publication US9529005B2, “Modulating bacterial MAM polypeptides in pathogenic disease” (priority 2011, dated 2016).
Like-named read-outs stand apart in the source and are kept apart here.

Columns and labels:
Test in all cases: Antimicrobial susceptibility testing (MIC), BD Phoenix Automated Microbiology System; for interpretation of the result: key: R, resistant; I, intermediate; S, susceptible; R*: *As a rule, when ESBL is detected, an interpretation of susceptible or intermediate for penicillins, cephalosporins and aztreonam is reported as resistant
Assay type in all cases: cell-based
[1] = system: Klebsiella ssp.; settings: for MIC: Klebsiella, read-out: minimal inhibiting concentration; for interpretation of the result: key: R, resistant; I, intermediate; S, susceptible; R*: *As a rule, when ESBL is detected, an interpretation of susceptible or intermediate for penicillins, cephalosporins and aztreonam is reported as resistant
Text: (§1) The inventors performed antimicrobial susceptibility testing (AST) by determining the minimal inhibiting concentration (MIC) of a panel of antimicrobials on all twenty bacterial isolates using the BD Phoenix Automated Microbiology System (Table 3). Antimicrobial panels included several drugs from each of the four most commonly used classes of antimicrobials, aminoglycosides, β-lactams, carbapenems and fluoroquinolones. The panels also included antimicrobials from other classes, such as trimethoprim/sulfamethoxazole, but resistance to these was not considered in the classification of isolates as multidrug-resistant.

[2] = system: Pseudomonas aeruginosa; settings: for MIC: Pseudomonas aeruginosa, read-out: minimal inhibiting concentration; for interpretation of the result: key: R, resistant; I, intermediate; S, susceptible; R*: *As a rule, when ESBL is detected, an interpretation of susceptible or intermediate for penicillins, cephalosporins and aztreonam is reported as resistant
Text: as §1

[3] = system: Escherichia coli; settings: for MIC: Escherichia coli, read-out: minimal inhibiting concentration; for interpretation of the result: key: R, resistant; I, intermediate; S, susceptible; R*: *As a rule, when ESBL is detected, an interpretation of susceptible or intermediate for penicillins, cephalosporins and aztreonam is reported as resistant
Text: as §1

[4] = system: Acinetobacter baumannii; settings: for MIC: Acinetobacter baumannii
Text: as §1

[5] = Pseudomonas aeruginosa isolate 1
[6] = Pseudomonas aeruginosa isolate 2
[7] = Pseudomonas aeruginosa isolate 3
[8] = Pseudomonas aeruginosa isolate 4
[9] = Pseudomonas aeruginosa isolate 5
[10] = Acinetobacter baumannii isolate 1
[11] = Acinetobacter baumannii isolate 2
[12] = Acinetobacter baumannii isolate 3
[13] = Acinetobacter baumannii isolate 4
[14] = Acinetobacter baumannii isolate 5

NCC[C@H](O)C(=O)N[C@@H]1C[C@H](N)[C@@H](O[C@H]2O[C@H](CN)[C@@H](O)[C@H](O)[C@H]2O)[C@H](O)[C@H]1O[C@H]1O[C@H](CO)[C@@H](O)[C@H](N)[C@H]1O [Amik., Amikacin]
16 µg/mL: minimal inhibiting concentration [2, 6] | minimal inhibiting concentration [2, 7]
R: interpretation of the result ([1]; Klebsiella ssp. isolate 5) | interpretation of the result [4, 10] | interpretation of the result [4, 11] | interpretation of the result [4, 13] | interpretation of the result [4, 14]
32 µg/mL: minimal inhibiting concentration [2, 8] | minimal inhibiting concentration [2, 9] | minimal inhibiting concentration [4, 12]
≤ 8 µg/mL: minimal inhibiting concentration ([1]; Klebsiella ssp. isolate 1) | minimal inhibiting concentration ([1]; Klebsiella ssp. isolate 2) | minimal inhibiting concentration ([1]; Klebsiella ssp. isolate 3) | minimal inhibiting concentration ([1]; Klebsiella ssp. isolate 4) | minimal inhibiting concentration [2, 5] | minimal inhibiting concentration ([3]; Escherichia coli isolate 1) | minimal inhibiting concentration ([3]; Escherichia coli isolate 2) | minimal inhibiting concentration ([3]; Escherichia coli isolate 3) | minimal inhibiting concentration ([3]; Escherichia coli isolate 4) | minimal inhibiting concentration ([3]; Escherichia coli isolate 5)
I: interpretation of the result [2, 8] | interpretation of the result [2, 9] | interpretation of the result [4, 12]
> 32 µg/mL: minimal inhibiting concentration ([1]; Klebsiella ssp. isolate 5) | minimal inhibiting concentration [4, 10] | minimal inhibiting concentration [4, 11] | minimal inhibiting concentration [4, 13] | minimal inhibiting concentration [4, 14]
S: interpretation of the result ([1]; Klebsiella ssp. isolate 1) | interpretation of the result ([1]; Klebsiella ssp. isolate 2) | interpretation of the result ([1]; Klebsiella ssp. isolate 3) | interpretation of the result ([1]; Klebsiella ssp. isolate 4) | interpretation of the result [2, 5] | interpretation of the result [2, 6] | interpretation of the result [2, 7] | interpretation of the result ([3]; Escherichia coli isolate 1) | interpretation of the result ([3]; Escherichia coli isolate 2) | interpretation of the result ([3]; Escherichia coli isolate 3) | interpretation of the result ([3]; Escherichia coli isolate 4) | interpretation of the result ([3]; Escherichia coli isolate 5)

CC1(C)S[C@@H]2[C@H](NC(=O)[C@H](N)c3ccccc3)C(=O)N2[C@H]1C(=O)O [Amp., Ampicillin]
> 16 µg/mL: minimal inhibiting concentration ([1]; Klebsiella ssp. isolate 2) | minimal inhibiting concentration ([1]; Klebsiella ssp. isolate 3) | minimal inhibiting concentration ([1]; Klebsiella ssp. isolate 4) | minimal inhibiting concentration ([1]; Klebsiella ssp. isolate 5) | MIC [1] | minimal inhibiting concentration [2, 6] | minimal inhibiting concentration [2, 7] | minimal inhibiting concentration [2, 8] | minimal inhibiting concentration [2, 9] | MIC [2] | minimal inhibiting concentration ([3]; Escherichia coli isolate 2) | minimal inhibiting concentration ([3]; Escherichia coli isolate 3) | minimal inhibiting concentration ([3]; Escherichia coli isolate 4) | minimal inhibiting concentration ([3]; Escherichia coli isolate 5) | MIC [3] | MIC ([4]; read-out: minimal inhibiting concentration, Acinetobacter baumannii isolate 1) | MIC ([4]; read-out: minimal inhibiting concentration, Acinetobacter baumannii isolate 2) | MIC ([4]; read-out: minimal inhibiting concentration, Acinetobacter baumannii isolate 3) | MIC ([4]; read-out: minimal inhibiting concentration, Acinetobacter baumannii isolate 4) | MIC ([4]; read-out: minimal inhibiting concentration, Acinetobacter baumannii isolate 5)
R: interpretation of the result ([1]; Klebsiella ssp. isolate 1) | interpretation of the result ([1]; Klebsiella ssp. isolate 2) | interpretation of the result ([1]; Klebsiella ssp. isolate 3) | interpretation of the result ([1]; Klebsiella ssp. isolate 4) | interpretation of the result ([1]; Klebsiella ssp. isolate 5) | interpretation of the result [2, 5] | interpretation of the result [2, 6] | interpretation of the result [2, 7] | interpretation of the result [2, 8] | interpretation of the result [2, 9] | interpretation of the result ([3]; Escherichia coli isolate 1) | interpretation of the result ([3]; Escherichia coli isolate 2) | interpretation of the result ([3]; Escherichia coli isolate 3) | interpretation of the result ([3]; Escherichia coli isolate 4) | interpretation of the result ([3]; Escherichia coli isolate 5) | interpretation of the result [4, 10] | interpretation of the result [4, 11] | interpretation of the result [4, 12] | interpretation of the result [4, 13] | interpretation of the result [4, 14]

CC(C)(O/N=C(\C(=O)N[C@@H]1C(=O)N2C(C(=O)[O-])=C(C[n+]3ccccc3)CS[C@H]12)c1csc(N)n1)C(=O)O [Ceft., Ceftazidime]
8 µg/mL: MIC [2, 6] | MIC ([4]; Acinetobacter baumannii isolate 3, read-out: minimal inhibiting concentration)
4 µg/mL: MIC ([3]; Escherichia coli isolate 5)
S: interpretation of the result [2, 6] | interpretation of the result [4, 12]
> 16 µg/mL: MIC ([1]; Klebsiella ssp. isolate 1) | MIC ([1]; Klebsiella ssp. isolate 5) | MIC [2, 5] | MIC [2, 7] | MIC [2, 8] | MIC [2, 9] | MIC ([3]; Escherichia coli isolate 1) | MIC ([3]; Escherichia coli isolate 2) | MIC ([3]; Escherichia coli isolate 3) | MIC ([3]; Escherichia coli isolate 4) | MIC ([4]; Acinetobacter baumannii isolate 1, read-out: minimal inhibiting concentration) | MIC ([4]; Acinetobacter baumannii isolate 2, read-out: minimal inhibiting concentration) | MIC ([4]; Acinetobacter baumannii isolate 4, read-out: minimal inhibiting concentration) | MIC ([4]; Acinetobacter baumannii isolate 5, read-out: minimal inhibiting concentration)
> 2 µg/mL: MIC ([1]; Klebsiella ssp. isolate 2) | MIC ([1]; Klebsiella ssp. isolate 3) | MIC ([1]; Klebsiella ssp. isolate 4)
R: interpretation of the result ([1]; Klebsiella ssp. isolate 1) | interpretation of the result ([1]; Klebsiella ssp. isolate 5) | interpretation of the result [2, 5] | interpretation of the result [2, 7] | interpretation of the result [2, 8] | interpretation of the result [2, 9] | interpretation of the result ([3]; Escherichia coli isolate 1) | interpretation of the result ([3]; Escherichia coli isolate 2) | interpretation of the result ([3]; Escherichia coli isolate 3) | interpretation of the result ([3]; Escherichia coli isolate 4) | interpretation of the result [4, 10] | interpretation of the result [4, 11] | interpretation of the result [4, 13] | interpretation of the result [4, 14]
